Like-named read-outs stand apart in the source and are kept apart here. Starred links: 1 amine or outer side, 2 acyl side, 3 side chain; linkers in the order of their positions; H or OH if unused. Non-standard residues stand in square brackets, D forms with d. Residues, ends and D or L forms follow the SMILES beside them. ξ: configuration not given here. NMeBmt(3-oxo) = C/C=C/C[C@@H](C)C(=O)[C@H](NC)C(=O)O; MeBmt = C/C=C/C[C@@H](C)[C@@H](O)[C@H](NC)C(=O)O; ξThr(3S) = C[C@H](O[*:3])C(N[*:1])C(=O)[*:2]; X1 = CN([C@H](OCCN1CCOCC1)C(=O)[*:2])[*:1]; X2 = CN(C)CCO[C@H](C(=O)[*:2])N(C)[*:1]; NMeL = CN[C@@H](CC(C)C)C(=O)O; NMeV = CN[C@H](C(=O)O)C(C)C; Nva = CCC[C@H](N)C(=O)O
Experiments:
[1] = molecular target: recombinant Calcineurin (CaN) (Homo sapiens (Human), UniProt P63098+Q08209); assay: Calcineurin phosphatase inhibition assay without cyclophilin A; format: biochemical; details: RII phosphopeptide substrate, read-out: CaN Inhibition (IC50, nM) − CypA
[2] = molecular target: recombinant Calcineurin (CaN) (Homo sapiens (Human), UniProt P62937+P63098+Q08209); assay: Calcineurin phosphatase inhibition assay with cyclophilin A; format: biochemical; details: RII phosphopeptide substrate, read-out: CaN Inhibition (IC50, nM) + CypA
permeabilized HepG2 = assay: Calcium retention capacity (CRC) assay in permeabilized HepG2; format: cell-based; details: Homo sapiens
Human CypD = Human CypD (Homo sapiens (Human), UniProt P30405); assay: Cyclophilin peptidyl-prolyl isomerase functional assay (PPIase), CypD; format: biochemical; details: human recombinant enzyme, 10° C.; read-out: Inhibition (Ki, nM) Human CypD
Human CypA = Human CypA (Homo sapiens (Human), UniProt P62937); assay: Cyclophilin peptidyl-prolyl isomerase functional assay (PPIase), CypA; format: biochemical; details: human recombinant enzyme, 10° C.; read-out: Inhibition (Ki, nM) Human CypA
[3] = permeabilized HepG2, area under the curve, read-out: Calcium Retention Capacity EC50

Human CypD, sequence (P30405 30-207): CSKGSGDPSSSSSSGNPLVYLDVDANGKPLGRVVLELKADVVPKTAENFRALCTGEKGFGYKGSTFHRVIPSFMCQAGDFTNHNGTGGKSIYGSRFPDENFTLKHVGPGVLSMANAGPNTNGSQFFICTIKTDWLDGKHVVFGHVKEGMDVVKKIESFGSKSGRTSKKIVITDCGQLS

IC50 [1] [nM]	IC50 [2] [nM]	EC50 (permeabilized HepG2; [3]) [nM]	Ki (Human CypD) [nM]	Ki (Human CypA) [nM]	SMILES	EC50 (permeabilized HepG2; HepG2, read-out: Calcium Retention Capacity EC50 (nM)) [nM]
5510	1320	946			C/C=C/C[C@@H](C)[C@@H](O)[C@H]1C(=O)N[C@@H](C(C)C)C(=O)N(C)[C@H](OCCN(C)C)C(=O)N(C)[C@@H](CC(C)C)C(=O)N[C@@H](C(C)C)C(=O)N(C)[C@@H](CC(C)C)C(=O)N[C@@H](C)C(=O)N[C@H](C)C(=O)N(C)[C@@H](CC(C)C)C(=O)N(C)[C@@H](CC(C)C)C(=O)N(C)[C@@H](C(C)C)C(=O)N1C [Compound 3] (cyclo(A[dA][NMeL][NMeL][NMeV][MeBmt]V[X2][NMeL]V[NMeL]))	
4190	1320	320			C/C=C/C[C@@H](C)[C@@H](O)[C@H]1C(=O)N[C@@H](C(C)C)C(=O)N(C)[C@H](OCCN2CCOCC2)C(=O)N(C)[C@@H](CC(C)C)C(=O)N[C@@H](C(C)C)C(=O)N(C)[C@@H](CC(C)C)C(=O)N[C@@H](C)C(=O)N[C@H](C)C(=O)N(C)[C@@H](CC(C)C)C(=O)N(C)[C@@H](CC(C)C)C(=O)N(C)[C@@H](C(C)C)C(=O)N1C [Compound 4] (cyclo(A[dA][NMeL][NMeL][NMeV][MeBmt]V[X1][NMeL]V[NMeL]))	
			6	6.5	C/C=C/C[C@@H](C)[C@@H](O)[C@H]1C(=O)N[C@@H](CC)C(=O)N(C)[C@H](OCC2(N(C)C)CC2)C(=O)N(C)[C@@H](CC(C)C)C(=O)N[C@@H](C(C)C)C(=O)N(C)[C@@H](CC(C)C)C(=O)N[C@@H](C)C(=O)N[C@H](C)C(=O)N(C)[C@@H](CC(C)C)C(=O)N(C)[C@@H](CC(C)C)C(=O)N(C)[C@@H](C(C)C)C(=O)N1C [Compound 12]	
> 10000	5000	> 10000	78	50	C/C=C/C[C@@H](C)[C@@H](O)[C@H]1C(=O)NC([C@H](C)O)C(=O)N(C)[C@H](OCCN(C)C)C(=O)N(C)[C@@H](CC(C)C)C(=O)N[C@@H](C(C)C)C(=O)N(C)[C@@H](CC(C)C)C(=O)N[C@@H](C)C(=O)N[C@H](C)C(=O)N(C)[C@@H](CC(C)C)C(=O)N(C)[C@@H](CC(C)C)C(=O)N(C)[C@@H](C(C)C)C(=O)N1C (stereo partly drawn) [Compound 2] (cyclo(A[dA][NMeL][NMeL][NMeV][MeBmt][ξThr(3S)][X2][NMeL]V[NMeL]))	
7830	636	1610			C/C=C/C[C@@H](C)[C@@H](O)[C@H]1C(=O)N[C@@H](CCC)C(=O)N(C)[C@H](OCCN2CCOCC2)C(=O)N(C)[C@@H](CC(C)C)C(=O)N[C@@H](C(C)C)C(=O)N(C)[C@@H](CC(C)C)C(=O)N[C@@H](C)C(=O)N[C@H](C)C(=O)N(C)[C@@H](CC(C)C)C(=O)N(C)[C@@H](CC(C)C)C(=O)N(C)[C@@H](C(C)C)C(=O)N1C [Compound 8] (cyclo(A[dA][NMeL][NMeL][NMeV][MeBmt][Nva][X1][NMeL]V[NMeL]))	
					C/C=C/C[C@@H](C)[C@@H](O)[C@H]1C(=O)N[C@@H](CC)C(=O)N(C)[C@H](OCCN(C)C)C(=O)N(C)[C@@H](CC(C)C)C(=O)N[C@@H](C(C)C)C(=O)N(C)[C@@H](CC(C)C)C(=O)N[C@@H](C)C(=O)N[C@H](C)C(=O)N(C)[C@@H](CC(C)C)C(=O)N(C)[C@@H](CC(C)C)C(=O)N(C)[C@@H](C(C)C)C(=O)N1C [Compound 1, reference compound]	916
1620	616	3320	6	25	C/C=C/C[C@@H](C)[C@@H](O)[C@H]1C(=O)N[C@@H](CC)C(=O)N(C)[C@H](OCC(C)(C)N(C)C)C(=O)N(C)[C@@H](CC(C)C)C(=O)N[C@@H](C(C)C)C(=O)N(C)[C@@H](CC(C)C)C(=O)N[C@@H](C)C(=O)N[C@H](C)C(=O)N(C)[C@@H](CC(C)C)C(=O)N(C)[C@@H](CC(C)C)C(=O)N(C)[C@@H](C(C)C)C(=O)N1C [Compound 11]	
3220	789	2370			C/C=C/C[C@@H](C)[C@@H](O)[C@H]1C(=O)N[C@@H](CCC)C(=O)N(C)[C@H](OCCN(C)C)C(=O)N(C)[C@@H](CC(C)C)C(=O)N[C@@H](C(C)C)C(=O)N(C)[C@@H](CC(C)C)C(=O)N[C@@H](C)C(=O)N[C@H](C)C(=O)N(C)[C@@H](CC(C)C)C(=O)N(C)[C@@H](CC(C)C)C(=O)N(C)[C@@H](C(C)C)C(=O)N1C [Compound 7] (cyclo(A[dA][NMeL][NMeL][NMeV][MeBmt][Nva][X2][NMeL]V[NMeL]))	
3710	1830	3200	9.7	14	C/C=C/C[C@@H](C)[C@@H](O)[C@H]1C(=O)N[C@@H](CC)C(=O)N(C)[C@H](OCC/N=C/N(C)C)C(=O)N(C)[C@@H](CC(C)C)C(=O)N[C@@H](C(C)C)C(=O)N(C)[C@@H](CC(C)C)C(=O)N[C@@H](C)C(=O)N[C@H](C)C(=O)N(C)[C@@H](CC(C)C)C(=O)N(C)[C@@H](CC(C)C)C(=O)N(C)[C@@H](C(C)C)C(=O)N1C [Compound 10]	
> 10000	> 10000	> 10000	150	90	C/C=C/C[C@@H](C)C(=O)[C@H]1C(=O)N[C@@H](C(C)C)C(=O)N(C)[C@H](OCCN2CCOCC2)C(=O)N(C)[C@@H](CC(C)C)C(=O)N[C@@H](C(C)C)C(=O)N(C)[C@@H](CC(C)C)C(=O)N[C@@H](C)C(=O)N[C@H](C)C(=O)N(C)[C@@H](CC(C)C)C(=O)N(C)[C@@H](CC(C)C)C(=O)N(C)[C@@H](C(C)C)C(=O)N1C [Compound 6] (cyclo(A[dA][NMeL][NMeL][NMeV][NMeBmt(3-oxo)]V[X1][NMeL]V[NMeL]))	
3880	2020	468	8.2	11	C/C=C/C[C@@H](C)[C@@H](O)[C@H]1C(=O)N[C@@H](CC)C(=O)N(C)[C@H](OCC/N=C(\C)N(C)C)C(=O)N(C)[C@@H](CC(C)C)C(=O)N[C@@H](C(C)C)C(=O)N(C)[C@@H](CC(C)C)C(=O)N[C@@H](C)C(=O)N[C@H](C)C(=O)N(C)[C@@H](CC(C)C)C(=O)N(C)[C@@H](CC(C)C)C(=O)N(C)[C@@H](C(C)C)C(=O)N1C [Compound 9]	
> 10000	> 10000	> 10000	17	23	C/C=C/C[C@@H](C)C(=O)[C@H]1C(=O)N[C@@H](C(C)C)C(=O)N(C)[C@H](OCCN(C)C)C(=O)N(C)[C@@H](CC(C)C)C(=O)N[C@@H](C(C)C)C(=O)N(C)[C@@H](CC(C)C)C(=O)N[C@@H](C)C(=O)N[C@H](C)C(=O)N(C)[C@@H](CC(C)C)C(=O)N(C)[C@@H](CC(C)C)C(=O)N(C)[C@@H](C(C)C)C(=O)N1C [Compound 5] (cyclo(A[dA][NMeL][NMeL][NMeV][NMeBmt(3-oxo)]V[X2][NMeL]V[NMeL]))	
